Reference: PMC4900891 (Biochemistry, 2016)
Where a chain is given by its changes, count along the chain named. Values joined by “and” are separate entries in the source; they are usually repeats but may differ in a detail not shown here. Equal entries are not always repeated. Values belong to the compound of their own block, whether it stands above or below them. Square brackets hold non-standard residues; d marks the D form. Peptide text beside a SMILES is read from it. pY = N[C@@H](Cc1ccc(OP(=O)(O)O)cc1)C(=O)O

Assays:
SHP2^E76Q [1] = target: T1, SHP2^E76Q (Homo sapiens, UniProt Q06124, E76Q); assay: Basal DiFMUP dephosphorylation kinetics, E76Q; assay type: biochemical; details: substrate DiFMUP, basal (no peptide); 0.05 nM enzyme, Hepes pH 7.2
T1 sequence (Q06124 1-525 E76Q): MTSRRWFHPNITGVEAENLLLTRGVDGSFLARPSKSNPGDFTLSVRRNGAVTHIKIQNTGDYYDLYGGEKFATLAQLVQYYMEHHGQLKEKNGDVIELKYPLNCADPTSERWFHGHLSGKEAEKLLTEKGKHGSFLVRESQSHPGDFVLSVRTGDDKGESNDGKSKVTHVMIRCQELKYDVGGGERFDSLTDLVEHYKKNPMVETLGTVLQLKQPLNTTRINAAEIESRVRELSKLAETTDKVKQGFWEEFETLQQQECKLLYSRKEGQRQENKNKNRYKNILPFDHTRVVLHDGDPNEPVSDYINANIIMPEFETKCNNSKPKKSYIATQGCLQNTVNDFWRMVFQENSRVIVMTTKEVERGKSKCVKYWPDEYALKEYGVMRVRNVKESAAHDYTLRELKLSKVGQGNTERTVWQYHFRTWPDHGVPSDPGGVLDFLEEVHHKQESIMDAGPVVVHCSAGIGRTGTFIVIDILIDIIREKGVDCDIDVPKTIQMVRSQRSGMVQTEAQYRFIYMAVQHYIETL

SHP2^S502P [2] = target: T2, SHP2^S502P (Homo sapiens, UniProt Q06124, S502P); assay: Basal DiFMUP dephosphorylation kinetics, S502P; assay type: biochemical; details: substrate DiFMUP, basal (no peptide); 0.025 nM enzyme, Hepes pH 7.2
T2 sequence (Q06124 1-525 S502P): T1 sequence (Q06124 1-525 E76Q) with Q76E, S502P

SHP2^WT [3] = target: T3, SHP2^WT (Homo sapiens, UniProt Q06124); details: substrate DiFMUP, basal (no peptide); 2.5 nM enzyme, Hepes pH 7.2
T3 sequence (Q06124 1-525): T1 sequence (Q06124 1-525 E76Q) with Q76E

SHP2^PTP = details: substrate DiFMUP, basal (no peptide); 0.00625 nM enzyme, Hepes pH 7.2
SHP2^WT [4] = target: T3, SHP2^WT; assay: Phosphopeptide activation of SHP2; assay type: biochemical
SHP2^E76Q [5] = target: T1, SHP2^E76Q; assay: Phosphopeptide activation of SHP2; assay type: biochemical
SHP2^S502P [6] = target: T2, SHP2^S502P; assay: Phosphopeptide activation of SHP2; assay type: biochemical
SHP2 (both SH2 domains) = details: cited from earlier work

Compound: Cc1cc(=O)oc2c(F)c(OP(=O)(O)O)c(F)cc12 [DiFMUP, 6,8-Difluoro-4-Methylumbelliferyl Phosphate]
kcat/KM (SHP2^E76Q [1]): 71000 M⁻¹ s⁻¹ and 71200 M⁻¹ s⁻¹
kcat/KM (SHP2^S502P [2]): 77000 M⁻¹ s⁻¹ and 76500 M⁻¹ s⁻¹
kcat/KM (SHP2^WT [3]): 2100 M⁻¹ s⁻¹
kcat/KM (SHP2^PTP): 298000 M⁻¹ s⁻¹

Compound: CC[C@H](C)[C@H](NC(=O)[C@H](Cc1ccc(OP(=O)(O)O)cc1)NC(=O)[C@H](CC(N)=O)NC(=O)[C@H](CC(C)C)NC(=O)[C@@H](N)CO)C(=O)N[C@@H](CC(=O)O)C(=O)N[C@@H](CC(C)C)C(=O)N[C@@H](CC(=O)O)C(=O)N[C@@H](CC(C)C)C(=O)N[C@H](C(=O)N[C@@H](CCCCN)C(=O)O)C(C)C [PY1172] (H-SLN[pY]IDLDLVK-OH)
EC50 (SHP2^WT [4]): 10000 nM
EC50 (SHP2^E76Q [5]): 350 nM
EC50 (SHP2^S502P [6]): 830 nM

extent of activation (SHP2^WT [4]; double-phosphorylated peptide, low-micromolar concentrations): complete activation
sensitivity to bisphosphorylated peptide (SHP2^E76Q [5]; relative to SHP2^WT): greatest sensitivity
sensitivity to bisphosphorylated peptide (SHP2^S502P [6]; relative to SHP2^WT): greatest sensitivity
Compound: SLNY(p)IDLDLVK-dPEG8-LSTY(p)ASINFQK [PY1172-PEG-PY1222]
SH2 domain occupancy and activation (SHP2 (both SH2 domains)): occupies both SH2 domains and induces full activation of the phosphatase
